# Assay results reported in ChEMBL document CHEMBL1133289, “The binding of cocaine to cyclodextrins” (Bioorg Med Chem Lett, 2000).
# Assays:
# [1] = Binding constant towards alpha-cyclodextrin
# [2] = (§1) Binding constant towards Beta-cyclodextrin at pH 7.4 in unbuffered water at 25 C in a one-to-one complex
# [3] = as §1; remark: listed apart in the source
# [4] = Binding constant towards gamma-cyclodextrin
# [5] = Binding constant towards Beta-cyclodextrin
SMILES,Binding constant [1],Binding constant [2],Kd [3],Binding constant [4],Binding constant [5]
COC(=O)[C@H]1[C@@H](OC(=O)c2ccccc2)C[C@@H]2CC[C@H]1N2C [COCAINE],< 60 M⁻¹,570 M⁻¹,1750 µM,< 60 M⁻¹,–
CN1[C@@H]2CC[C@H]1C[C@H](OC(=O)c1ccccc1)C2 (stereo in doubt; 9),–,–,–,–,500 M⁻¹
CN1[C@@H]2CC[C@H]1C[C@H](OC(=O)c1ccccc1)C2 (stereo in doubt; 8),–,–,–,–,1120 M⁻¹
